In BindingDB's records for doi:10.1016/j.ejmech.2017.11.032 (International Institute of Molecular and Cell Biology, 2018) one finds Ki, IC50 and Kd data, which are given here for 38 compounds.

Some results are limits rather than exact numbers.

A short description of the first assay: Competitive inhibition of bacterial C-terminal His6-tagged ErmC' expressed in Escherichia coli BL21(DE3) in presence of [methyl-3H]SAM.
Regarding `CC(=O)Nc1nc(C)c(-c2csc(Nc3cccc(O)c3)n2)s1`, the inhibition constant Ki (as a rule, the equilibrium dissociation constant of an inhibitor or competing ligand from its target) was 354 µM.

With `O=C(c1csc(Nc2ncccn2)n1)N1CCN(c2ccc(C(F)(F)F)cn2)CC1`, the Ki turned out to be 111 µM.

A short description of the next assay: Non-competitive inhibition of bacterial C-terminal His6-tagged ErmC' (unknown origin) expressed in Escherichia coli BL21(DE3) in presence of [methyl-3H]SAM.
For the compound `O=C(c1c[nH]c(=O)[nH]1)N1CCN(c2ccc(C(F)(F)F)cn2)CC1`, the Ki is 148 µM.

Assay in another assay: as above
This is another data set of the same source.
On to `CC(=O)c1c[nH]c(C(=O)N2CCN(c3ccc(C(F)(F)F)cn3)CC2)c1`, for which the IC50 – broadly, the point on the concentration scale where inhibition reaches its midpoint – is greater than 500 µM.

Consider `O=C(c1n[nH]c(=O)[nH]1)N1CCN(c2ccc(C(F)(F)F)cn2)CC1`, for which the IC50 was greater than 500 µM.

Take `O=C(c1cn(-c2ccccc2)nn1)N1CCN(c2ccc(C(F)(F)F)cn2)CC1`: the 50% inhibitory concentration (IC50) turned out to be 500 µM.

On to `O=C(c1cnn[nH]1)N1CCN(c2ccc(C(F)(F)F)cn2)CC1`, for which the half-maximal inhibitory concentration (IC50) was greater than 500 µM.

As to `O=C(c1cc(C2CC2)n[nH]1)N1CCN(c2ccc(C(F)(F)F)cn2)CC1`, the IC50 is greater than 500 µM.

Take `O=C(Nc1cccc(NCc2ccncc2)c1)c1ccccc1Cl`: the IC50 was greater than 500 µM.

With `O=C(Nc1ccn(CCc2ccncc2)n1)Nc1ccc(F)cc1F`, the IC50 was 500 µM.

`O=C(Nc1ccncc1)c1ccn(COc2ccc(F)c(Cl)c2)n1`: the IC50 was greater than 500 µM.

`Cc1occc1C(=O)Nc1nc(CC(=O)Nc2ccccc2)cs1`: the 50% inhibitory concentration (IC50) stood at 250 µM.

As to `O=C(Cc1cccc(F)c1)Nc1cccc(-c2ccn[nH]2)c1`, the IC50 is 500 µM.

As to `O=C(Cc1cn2ccsc2n1)Nc1cccc(N2CCCC2=O)c1`, the IC50 is greater than 500 µM.

As for `O=C(Nc1cccc(NC(=O)c2cccc(F)c2)c1)c1ccncc1`, the half-inhibitory concentration (IC50) stood at 250 µM.

For `CN(C)c1ccc(CNC(=O)c2ccc(-n3cncn3)cc2)cc1`, the IC50 is greater than 500 µM.

Regarding `COc1ccc(C(=O)CSc2nc(O)cc(=O)[nH]2)cc1`, the 50% inhibitory concentration (IC50) was greater than 500 µM.

In the case of `O=C(CSc1nnc2c(n1)[nH]c1ccccc12)Nc1ccccn1`, the IC50 is greater than 250 µM.

As to `Nn1c(SCc2nc3ccccc3[nH]2)nnc1-c1ccncc1`, the 50% inhibitory concentration (IC50) worked out at 500 µM.

A further assay can be described thus: Inhibition of bacterial C-terminal His6-tagged ErmC' expressed in Escherichia coli ER2566 assessed as decrease in rRNA methylation using [methyl-3H]AdoMet measured after 1 hr.
As to `COC(=O)c1sc2ccccc2c1OS(=O)(=O)c1ccc(Cl)cc1`, the IC50 turned out to be 250 µM.

With `Cc1ccc(Sc2cc(C)c(C#N)c(Sc3ccc(C)cc3)n2)cc1`, the IC50 turned out to be 180 µM.

`O=C1c2ccccc2C(=O)N1CN(CCCn1ccnc1)CN1C(=O)c2ccccc2C1=O`: the IC50 was 300 µM.

Regarding `Clc1ccccc1Cn1nnc2c(N/N=C/c3cccnc3)ncnc21`, the IC50 came to 250 µM.

The next assay in a line: Inhibition of bacterial C-terminal His6-tagged ErmC' (unknown origin) expressed in Escherichia coli BL21(DE3) assessed as decrease in rRNA methylation using [methyl-3H]AdoMet measured after 1 hr.
Consider `CC(=O)Nc1nc(C)c(-c2csc(Nc3cccc(O)c3)n2)s1`, for which the 50% inhibitory concentration (IC50) was determined as 299 µM.

`O=C(c1csc(Nc2ncccn2)n1)N1CCN(c2ccc(C(F)(F)F)cn2)CC1`: the half-maximal inhibitory concentration (IC50) was found to be 110 µM.

Take `O=C(c1c[nH]c(=O)[nH]1)N1CCN(c2ccc(C(F)(F)F)cn2)CC1`: the IC50 was 100 µM.

Take `Cc1cccc(Nc2nc(C(=O)N3CCN(c4ccc(C(F)(F)F)cn4)CC3)cs2)n1`: the half-inhibitory concentration (IC50) worked out at 116 µM.

For the compound `O=C(NCc1cccc(Cn2ccnc2)c1)c1cc2ccccc2o1`, the half-maximal inhibitory concentration (IC50) turned out to be 500 µM.

With `Cn1cnnc1-c1cccc(NC(=O)Cc2cccc(F)c2)c1`, the IC50 is 500 µM.

As to `O=C(NCCOc1ccc2c(c1)OCO2)c1ccc2ccccc2n1`, the IC50 stood at 500 µM.

As for `CCCc1cc(C(=O)Nc2cccc(OCc3ccncc3)c2)[nH]n1`, the concentration for half-maximal inhibition (IC50) was found to be 250 µM.

Consider `Nc1nc(N)nc(CSc2nnc(NCc3ccccc3)s2)n1`, for which the concentration for half-maximal inhibition (IC50) was greater than 500 µM.

Take `O=C(Nc1nccs1)c1cc(-c2ccccn2)nc2ccccc12`: the half-maximal inhibitory concentration (IC50) was greater than 250 µM.

In the case of `O=C(NC1CCN(c2nc3ccccc3s2)CC1)c1ccncc1`, the concentration for half-maximal inhibition (IC50) was greater than 500 µM.

With `O=C(c1cc(Cl)c[nH]1)N1CCN(c2ncc(C(F)(F)F)cc2Cl)CC1`, the half-maximal inhibitory concentration (IC50) is greater than 500 µM.

As to `FC(F)(F)c1ccc(N2CCN(Cc3c[nH]c(-c4ccccc4)n3)CC2)nc1`, the IC50 was greater than 500 µM.

For `O=C(NCCSc1ccccc1)c1ccc(-n2cncn2)cc1`, the IC50 turned out to be 250 µM.

On to `FC(F)(F)c1ccc(N2CCN(Cc3cn4ccccc4n3)CC2)nc1`, for which the IC50 was greater than 500 µM.

In the case of `O=C(CSc1nc2cccnc2[nH]1)Nc1nccs1`, the half-inhibitory concentration (IC50) was greater than 500 µM.

In the case of `CC(=O)Nc1ccc(S(=O)(=O)NCCc2ccncc2)cc1`, the concentration for half-maximal inhibition (IC50) is 500 µM.

Another assay is described as follows: Inhibition of bacterial ErmC' assessed as decrease in rRNA methylation preincubated for 15 mins followed by S-adenosyl-L-[methyl3H]methionine addition measured after 2 hrs by scintillation counting method.
For the compound `Cc1nccc(C(=O)Nc2cc(NC(=O)c3ccccc3)ccc2C)n1`, the IC50 was 18 µM.

The next assay is described as follows: Inhibition of bacterial C-terminal His6-tagged ErmC' expressed in Escherichia coli BL21(DE3) assessed as decrease of protein binding to [gamma-33P]ATP-labeled 32-nt oligonucleotide after 30 mins by filter binding assay.
Regarding `O=C(c1csc(Nc2ncccn2)n1)N1CCN(c2ccc(C(F)(F)F)cn2)CC1`, the Kd – broadly, the constant that tells how readily two partners part at equilibrium – amounted to 0.04 µM.

`Cc1cccc(Nc2nc(C(=O)N3CCN(c4ccc(C(F)(F)F)cn4)CC3)cs2)n1`: the Kd is 1.04 µM.
